Measurements: PMC3227451, “Structure-based development of novel sirtuin inhibitors” (Aging (Albany NY), 2011)

Columns and labels:
Sirt3 = target: T1, Sirt3 (Homo sapiens, UniProt Q9NTG7); experiment: Fluor-de-Lys peptide deacetylation assay, Sirt3; assay type: biochemical
T1 construct: Sirt3 residues 114-399; His-tag with linker comprising a TEV protease cleavage site (N); made in house; host or cells: E. coli
T1 sequence (Q9NTG7 114-399): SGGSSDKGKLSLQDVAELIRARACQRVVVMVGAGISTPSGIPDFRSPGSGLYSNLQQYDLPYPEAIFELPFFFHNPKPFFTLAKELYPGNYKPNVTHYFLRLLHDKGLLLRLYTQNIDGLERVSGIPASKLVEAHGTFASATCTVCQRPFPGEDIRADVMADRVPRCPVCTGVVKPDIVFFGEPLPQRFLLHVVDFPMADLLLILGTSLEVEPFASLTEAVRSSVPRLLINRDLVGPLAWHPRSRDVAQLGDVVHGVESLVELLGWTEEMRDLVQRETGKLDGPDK
How it was run: (§1)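 E. coli-expressed human Sirtuins with 0.5 mM NAD+ and 0.1 mM Fluor-de-Lys peptide: FdL-2 (QPK(acetyl-K)) for Sirt3, FdL-1 (RHK(acetyl-K)) for Sirt5. Compounds at 100 μM final; 30 min at 37 °C, then trypsin developer for 45 min at room temperature.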

Sirt5 = target: T2, Sirt5 (Homo sapiens, UniProt Q9NXA8); experiment: Fluor-de-Lys peptide deacetylation assay, Sirt5; assay type: biochemical
T2 construct: Sirt5 residues 34-302; His-tag with linker comprising a TEV protease cleavage site (N); made in house
T2 sequence (Q9NXA8 34-302): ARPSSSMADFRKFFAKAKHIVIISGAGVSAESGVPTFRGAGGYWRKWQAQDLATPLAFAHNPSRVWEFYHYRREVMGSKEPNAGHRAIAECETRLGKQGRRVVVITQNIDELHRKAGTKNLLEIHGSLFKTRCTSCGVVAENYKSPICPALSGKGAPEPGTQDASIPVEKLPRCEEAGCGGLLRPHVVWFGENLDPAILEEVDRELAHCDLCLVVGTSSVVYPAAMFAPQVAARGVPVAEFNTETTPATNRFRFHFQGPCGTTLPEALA
How it was run: as §1

Sirt6 = target: T3, Sirt6 (Homo sapiens, UniProt Q8N6T7); experiment: Fluor-de-Lys peptide deacetylation assay, Sirt6; assay type: biochemical
T3 construct: Sirt6 residues 13-308; His-tag with linker comprising a TEV protease cleavage site (N, cleaved yes); made in house; host or cells: E. coli Rosetta2
T3 sequence (Q8N6T7 13-308): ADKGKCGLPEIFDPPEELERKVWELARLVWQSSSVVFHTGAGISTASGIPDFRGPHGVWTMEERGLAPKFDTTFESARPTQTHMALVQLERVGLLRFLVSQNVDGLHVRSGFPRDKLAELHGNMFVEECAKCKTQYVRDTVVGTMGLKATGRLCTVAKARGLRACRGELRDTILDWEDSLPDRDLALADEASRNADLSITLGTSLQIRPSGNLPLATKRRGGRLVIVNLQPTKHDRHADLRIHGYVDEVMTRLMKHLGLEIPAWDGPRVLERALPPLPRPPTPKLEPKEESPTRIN
How it was run: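 Fluor-de-Lys kit run with FdL-1 peptide RHK(acetyl-K), 0.1 mM, plus 0.5 mM NAD+. Compounds at 100 μM final, 30 min at 37 °C, then trypsin developer for 45 min at room temperature.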

Sirt1 = target: T4, Sirt1 (Homo sapiens, UniProt Q96EB6); experiment: in vitro activity of Sirt1; assay type: biochemical; conditions: concentration of 100 μM
T4 sequence (Q96EB6 1-747): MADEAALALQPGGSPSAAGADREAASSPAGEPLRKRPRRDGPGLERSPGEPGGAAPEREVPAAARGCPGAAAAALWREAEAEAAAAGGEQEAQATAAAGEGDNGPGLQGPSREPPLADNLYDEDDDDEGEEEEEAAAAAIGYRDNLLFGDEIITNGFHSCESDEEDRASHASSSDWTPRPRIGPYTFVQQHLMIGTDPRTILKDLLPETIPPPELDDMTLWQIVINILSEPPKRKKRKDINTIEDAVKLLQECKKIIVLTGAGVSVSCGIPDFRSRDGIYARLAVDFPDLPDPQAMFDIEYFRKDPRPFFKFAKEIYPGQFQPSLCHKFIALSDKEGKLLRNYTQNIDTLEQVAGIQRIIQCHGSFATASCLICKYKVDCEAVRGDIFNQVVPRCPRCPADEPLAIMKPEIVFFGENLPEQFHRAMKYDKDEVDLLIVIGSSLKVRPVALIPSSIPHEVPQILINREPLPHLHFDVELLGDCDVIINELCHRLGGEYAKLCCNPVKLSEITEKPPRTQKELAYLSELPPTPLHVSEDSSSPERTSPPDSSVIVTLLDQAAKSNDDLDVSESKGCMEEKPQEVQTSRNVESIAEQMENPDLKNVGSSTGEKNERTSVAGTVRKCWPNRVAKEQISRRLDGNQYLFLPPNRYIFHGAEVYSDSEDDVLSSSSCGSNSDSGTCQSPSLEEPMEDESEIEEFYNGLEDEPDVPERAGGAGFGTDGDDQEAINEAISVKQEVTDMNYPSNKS

HEK cells = experiment: Cytotoxicity testing on HEK cells

Structure (SMILES): CC12Cc3cnc(-c4ccccc4)nc3CC1CCC1C2CCC2(C)C1CCC2(C)O (centres unmarked) [CSC13, 1,11a,13a-trimethyl-8-phenyl-2,3,3a,3b,4,5,5a,6,11,11a,11b,12,13,13a-tetradecahydro-1H-cyclopenta[5,6]naphtho[1,2-g]quinazolin-1-ol]
- Effect on the activity of Sirt3 (Sirt3): --- (key: inhibition: significant inhibitory effects (>25% loss of activity); ---: no such effect)
- Effect on the activity of Sirt5 (Sirt5): --- (key: inhibition: significant inhibitory effects (>25% loss of activity); ---: no such effect)
- Effect on the activity of Sirt6 (Sirt6): --- (key: inhibition: significant inhibitory effects (>25% loss of activity); ---: no such effect)
- effect on the in vitro activity of Sirt1 (Sirt1): only a weak inhibitory effect
- cytotoxicity (HEK cells): smaller effect
